Reference: patent publication US12552785B2, “Pyrazolo[1,5-α]pyridine derivative, preparation method therefor, and composition and use thereof” (SHENZHEN ZHONGGE BIOLOGICAL TECHNOLOGY CO., LTD., priority 2020, dated 2026)
Values belong to the compound of their own block, whether it stands above or below them.

What was measured:
Ba/F3-KIF5B-RET cell = target: T1, Ba/F3-KIF5B-RET cell (Homo sapiens, UniProt P07949); assay: CellTiter-Glo luminescence assay for inhibitory activity against Ba/F3-KIF5B-RET cell; format: cell-based; settings: Ba/F3-KIF5B-RET cells, 72 h
T1 construct: fused on or other part: P33176 (Kinesin-1 heavy chain)
T1 sequence (P07949 whole entry, stated change not applied, the tested form may be a part): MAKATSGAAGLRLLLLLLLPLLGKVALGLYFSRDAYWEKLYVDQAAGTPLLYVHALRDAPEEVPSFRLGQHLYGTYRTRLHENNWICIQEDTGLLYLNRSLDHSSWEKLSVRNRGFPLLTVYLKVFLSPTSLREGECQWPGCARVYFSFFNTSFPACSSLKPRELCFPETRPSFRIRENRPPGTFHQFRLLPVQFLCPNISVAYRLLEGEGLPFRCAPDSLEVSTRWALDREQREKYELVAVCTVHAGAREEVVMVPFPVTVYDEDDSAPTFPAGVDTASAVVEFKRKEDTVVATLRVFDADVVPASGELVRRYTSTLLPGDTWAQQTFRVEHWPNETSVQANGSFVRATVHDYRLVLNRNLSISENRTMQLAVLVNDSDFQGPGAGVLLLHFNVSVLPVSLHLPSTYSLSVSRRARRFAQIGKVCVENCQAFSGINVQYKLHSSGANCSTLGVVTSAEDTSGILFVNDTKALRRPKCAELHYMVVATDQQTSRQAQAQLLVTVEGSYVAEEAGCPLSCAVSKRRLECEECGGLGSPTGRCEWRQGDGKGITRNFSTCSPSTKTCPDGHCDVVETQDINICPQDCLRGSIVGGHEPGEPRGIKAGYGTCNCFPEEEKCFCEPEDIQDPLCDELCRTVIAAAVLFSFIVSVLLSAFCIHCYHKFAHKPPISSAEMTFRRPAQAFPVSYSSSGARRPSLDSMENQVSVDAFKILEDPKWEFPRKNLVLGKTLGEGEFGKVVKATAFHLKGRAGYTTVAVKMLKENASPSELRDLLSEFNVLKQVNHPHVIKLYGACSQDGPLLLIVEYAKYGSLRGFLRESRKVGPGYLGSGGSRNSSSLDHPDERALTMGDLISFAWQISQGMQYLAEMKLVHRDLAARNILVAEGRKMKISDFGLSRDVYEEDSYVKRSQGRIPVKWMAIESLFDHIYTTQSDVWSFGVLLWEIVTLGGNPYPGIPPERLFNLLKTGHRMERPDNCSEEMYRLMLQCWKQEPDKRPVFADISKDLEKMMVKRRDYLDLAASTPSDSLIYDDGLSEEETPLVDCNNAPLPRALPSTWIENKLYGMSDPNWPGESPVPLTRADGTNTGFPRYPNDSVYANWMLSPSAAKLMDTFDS
Description: (c) In Vitro Screening Experiment—CellTiter-Glo Luminescence Assay for Testing the Inhibitory Activity of Compounds Against Ba/F3-KIF5B-RET Cell Experimental Procedure: 1. The mammalian cell expression vector containing human KIF5B-RET cDNA was introduced into Ba/F3 cells using the Neon® transfection system method, and the surviving clones screened by puromycin were subjected to cell growth inhibitory function experiments and Western blotting to verify cell lines with stable and high expression of RET. 2. […] 3. The test compound (5 mM stock) was diluted 2.5 folds to 2 mM with 100% dimethyl sulfoxide; and the compound was diluted into 10 concentrations at an equal ratio of 1:3 in a 384-well dilution plate. 4. […] 6. […] 7. By fitting the data with XLFit 5.0 based on the parameters formula, the IC50 value was calculated as: Y=Bottom+(Top−Bottom)/(1+10^((Log IC50−X)*HillSlope)).

VEGFR2 = VEGFR2 (Homo sapiens, UniProt P35968); assay: HTRF method for testing the inhibitory activity of compounds against VEGFR2; format: biochemical; settings: IC50 by nonlinear regression, read-out: VEGFR2 kinase activity
Chain of VEGFR2 (P35968 20-1356, species assumed): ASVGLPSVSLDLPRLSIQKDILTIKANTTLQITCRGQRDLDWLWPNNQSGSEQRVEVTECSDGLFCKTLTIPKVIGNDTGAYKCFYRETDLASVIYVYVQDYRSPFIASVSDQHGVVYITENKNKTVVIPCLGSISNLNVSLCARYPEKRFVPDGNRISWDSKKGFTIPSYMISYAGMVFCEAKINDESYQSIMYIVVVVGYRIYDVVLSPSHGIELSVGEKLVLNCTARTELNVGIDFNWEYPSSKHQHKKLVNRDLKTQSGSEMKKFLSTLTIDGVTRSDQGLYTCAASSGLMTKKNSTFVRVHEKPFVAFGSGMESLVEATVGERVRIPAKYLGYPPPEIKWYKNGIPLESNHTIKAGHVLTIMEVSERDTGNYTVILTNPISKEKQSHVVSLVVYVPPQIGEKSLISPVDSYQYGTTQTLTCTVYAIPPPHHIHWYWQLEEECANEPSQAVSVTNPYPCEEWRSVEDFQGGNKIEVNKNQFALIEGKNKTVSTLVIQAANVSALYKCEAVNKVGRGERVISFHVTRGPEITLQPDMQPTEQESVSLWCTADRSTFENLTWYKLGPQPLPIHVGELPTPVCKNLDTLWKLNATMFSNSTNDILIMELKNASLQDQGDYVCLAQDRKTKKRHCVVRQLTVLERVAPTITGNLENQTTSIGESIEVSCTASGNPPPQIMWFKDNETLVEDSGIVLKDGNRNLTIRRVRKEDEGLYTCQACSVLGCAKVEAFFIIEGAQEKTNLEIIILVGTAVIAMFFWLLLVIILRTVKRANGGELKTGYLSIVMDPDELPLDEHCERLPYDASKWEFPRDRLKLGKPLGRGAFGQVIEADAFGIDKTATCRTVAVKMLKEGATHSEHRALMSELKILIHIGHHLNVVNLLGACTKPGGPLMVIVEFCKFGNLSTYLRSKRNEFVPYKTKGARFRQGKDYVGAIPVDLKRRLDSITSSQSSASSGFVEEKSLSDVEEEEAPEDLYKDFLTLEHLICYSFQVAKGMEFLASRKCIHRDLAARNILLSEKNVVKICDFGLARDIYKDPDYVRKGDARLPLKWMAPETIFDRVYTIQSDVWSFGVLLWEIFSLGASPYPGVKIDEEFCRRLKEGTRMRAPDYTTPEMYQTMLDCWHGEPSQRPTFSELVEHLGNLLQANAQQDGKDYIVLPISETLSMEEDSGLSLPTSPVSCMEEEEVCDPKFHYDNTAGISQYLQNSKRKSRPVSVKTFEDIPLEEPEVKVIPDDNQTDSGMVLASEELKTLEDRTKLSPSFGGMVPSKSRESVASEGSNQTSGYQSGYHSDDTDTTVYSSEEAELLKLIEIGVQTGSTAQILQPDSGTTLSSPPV
Experimental: (b) In Vitro Screening Experiment—HTRF Method for Testing the Inhibitory Activity of Compounds Against VEGFR2 Experimental Procedure: 1. […] The test compound (5 mM stock solution) was diluted 5 folds to 1 mM with 100% dimethyl sulfoxide; the compound was diluted into 10 concentrations at an equal ratio of 1:3 in a 384-well dilution plate. 3. […] 6. […] The reaction solution was centrifuged at 1000 g for 30 s, and then sealed, and incubated at room temperature for 40 min. 8. […] 10. […] 11. […] 12. IC50 was calculated with software GraphPad 6.0 by fitting inhibition values and logarithms of compound concentrations to a nonlinear regression (dose response−variable slope).

RET = RET (Homo sapiens, UniProt P07949); assay: HTRF method for testing the inhibitory activity of compounds against RET; format: biochemical; settings: IC50 by nonlinear regression, read-out: RET kinase activity
Chain of RET (P07949 29-1114): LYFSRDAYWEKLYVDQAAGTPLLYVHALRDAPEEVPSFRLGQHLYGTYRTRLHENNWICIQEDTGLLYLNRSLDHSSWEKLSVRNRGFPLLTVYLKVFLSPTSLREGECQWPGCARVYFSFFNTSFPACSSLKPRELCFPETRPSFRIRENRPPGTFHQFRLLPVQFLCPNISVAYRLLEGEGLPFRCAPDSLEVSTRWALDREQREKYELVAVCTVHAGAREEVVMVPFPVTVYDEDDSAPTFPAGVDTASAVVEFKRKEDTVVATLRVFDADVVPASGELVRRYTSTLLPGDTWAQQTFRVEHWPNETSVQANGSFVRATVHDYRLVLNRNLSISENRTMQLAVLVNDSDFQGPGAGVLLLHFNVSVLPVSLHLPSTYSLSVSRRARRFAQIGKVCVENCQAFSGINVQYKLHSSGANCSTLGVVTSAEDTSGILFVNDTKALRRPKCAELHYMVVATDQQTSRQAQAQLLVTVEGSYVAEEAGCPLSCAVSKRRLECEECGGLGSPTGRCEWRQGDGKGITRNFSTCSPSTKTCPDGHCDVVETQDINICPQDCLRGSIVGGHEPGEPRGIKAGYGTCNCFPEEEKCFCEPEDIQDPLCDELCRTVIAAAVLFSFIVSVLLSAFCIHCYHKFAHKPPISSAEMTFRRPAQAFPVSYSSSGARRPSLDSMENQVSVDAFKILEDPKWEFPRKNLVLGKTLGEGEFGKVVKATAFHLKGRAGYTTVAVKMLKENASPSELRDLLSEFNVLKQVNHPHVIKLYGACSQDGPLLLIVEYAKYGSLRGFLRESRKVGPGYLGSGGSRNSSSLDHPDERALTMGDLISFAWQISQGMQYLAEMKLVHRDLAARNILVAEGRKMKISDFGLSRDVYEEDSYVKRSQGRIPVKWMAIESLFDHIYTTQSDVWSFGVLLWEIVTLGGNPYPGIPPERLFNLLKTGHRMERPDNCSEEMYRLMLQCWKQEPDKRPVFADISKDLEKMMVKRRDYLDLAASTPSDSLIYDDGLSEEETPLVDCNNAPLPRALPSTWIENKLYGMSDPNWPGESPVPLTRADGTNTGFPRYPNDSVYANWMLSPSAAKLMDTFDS
Experimental: (a) In Vitro Screening Experiment-HTRF Method for Testing the Inhibitory Activity of Compounds Against RET Experimental Procedure: 1. […] 2. The test compound (5 mM stock solution) was diluted 5 folds to 1 mM with 100% dimethyl sulfoxide; the compound was diluted into 10 concentrations at an equal ratio of 1:3 in a 384-well dilution plate. 3. 0.2 μL of the serially diluted compound was added to a 384-well plate using an Echo 550 pipetting system, 2 replicate wells for each concentration, and the final concentration of dimethyl sulfoxide was 0.5% (v/v). […] 6. […] The reaction solution was centrifuged at 1000 g for 30 s, and then sealed, and incubated at room temperature for 30 min. 8. […] 10. […] 11. […] IC50 was calculated with software GraphPad 6.0 by fitting inhibition values and logarithms of compound concentrations to a nonlinear regression (dose response−variable slope).

Compound: COc1ccc([C@H](C)N(C)c2ccc(-c3cc(OCC(C)(C)O)cn4ncc(C#N)c34)cn2)cn1 [Compound 43, (S)-6-(2-hydroxy-2-methylpropoxy)-4-(6-((1-(6-methoxypyridin-3-yl)ethyl)(methyl)amino)pyridin-3-yl)pyrazolo[1,5-a]pyridine-3-carbonitrile]
GI50 (Ba/F3-KIF5B-RET cell): 0.035 µM | IC50 (VEGFR2): 0.245 µM | IC50 (RET): 0.00205 µM

Compound: CC[C@@H](c1ccc(-n2cc(F)cn2)nc1)N(C)c1ccc(-c2cc(OCC(C)(C)O)cn3ncc(C#N)c23)cn1 [Compound 44, (S)-4-(6-((1-(6-(4-fluoro-1H-pyrazolyl)pyridin-3-yl)propyl)(methyl)amino)pyridin-3-yl)-6-(2-hydroxy-2-methylpropoxy)pyrazo[1,5-a]pyridine-3-carbonitrile]
GI50 (Ba/F3-KIF5B-RET cell): 0.0186 µM | IC50 (VEGFR2): 0.018 µM | IC50 (RET): 0.00026 µM

Compound: C[C@@H](c1ccc(-n2cc(F)cn2)nc1)N(C)c1ccc(-c2cc(N3CCC(F)(F)CC3)cn3ncc(C#N)c23)cn1 [Compound 48]
GI50 (Ba/F3-KIF5B-RET cell): 0.142 µM | IC50 (VEGFR2): ≥ 5.44 µM | IC50 (RET): 0.00432 µM

Compound: C[C@@H](c1ccc(-n2cc(F)cn2)nc1)N(C)c1ccc(-c2cc(NCC3CC3)cn3ncc(C#N)c23)cn1 [Compound 49, (S)-6-((cyclopropylmethyl)amino)-4-(6-((1-(6-(4-fluoro-1H-pyrazol-1-yl)pyridin-3-yl)ethyl)(methyl)amino)pyridin-3-yl)pyrazolo[1,5-a]pyridine-3-carbonitrile]
GI50 (Ba/F3-KIF5B-RET cell): 0.0307 µM | IC50 (VEGFR2): > 5 µM | IC50 (RET): 0.00125 µM

Compound: C#CCOc1cc(-c2ccc(N(C)[C@@H](C)c3ccc(-n4cc(F)cn4)nc3)nc2)c2c(C#N)cnn2c1 [Compound 53, (S)-4-(6-((1-(6-(4-fluoro-1H-pyrazol-1-yl)pyridin-3-yl)ethyl)(methyl)amino)pyridine-3-yl)-6-(prop-2-yn-1-yloxy)pyrazolo[1,5-a]pyridine-3-carbonitrile]
GI50 (Ba/F3-KIF5B-RET cell): 0.432 µM | IC50 (VEGFR2): 0.293 µM | IC50 (RET): 0.00552 µM

Compound: COCOc1cc(-c2ccc(N(C)[C@@H](C)c3ccc(-n4cc(F)cn4)nc3)nc2)c2c(C#N)cnn2c1 [Compound 55, (S)-4-(6-((1-(6-(4-fluoro-1H-pyrazol-1-yl)pyridin-3-yl)ethyl)(methyl)amino)pyridine-3-yl)-6-(methoxymethoxy)pyrazolo[1,5-a]pyridine-3-carbonitrile]
GI50 (Ba/F3-KIF5B-RET cell): 0.38 µM | IC50 (VEGFR2): > 5 µM | IC50 (RET): 0.00379 µM

Compound: CN(Cc1ccc(-n2cc(F)cn2)nc1)c1ccc(-c2cc(OCC(C)(C)O)cn3ncc(C#N)c23)cn1 [Compound 56, 4-(6-(((6-(4-fluoro-1H-pyrazol-1-yl)pyridin-3-yl)methyl)(methyl)amino)pyridin-3-yl)-6-(2-hydroxy-2-methylpropoxy)pyrazolo[1,5-a]pyridine-3-carbonitrile]
GI50 (Ba/F3-KIF5B-RET cell): 0.0139 µM | IC50 (VEGFR2): 0.0302 µM | IC50 (RET): 0.00068 µM

Compound: C[C@@H](c1ccc(-n2cccn2)nc1)N(C)c1ccc(-c2cc(OCC(C)(C)O)cn3ncc(C#N)c23)cn1 [Compound 58, (S)-4-(6-((1-(6-(1H-pyrazol-1-yl)pyridin-3-yl)ethyl)(methyl)amino)pyridin-3-yl)-6-(2-hydroxy-2-methylpropoxy)pyrazolo[1,5-a]pyridine-3-carbonitrile]
GI50 (Ba/F3-KIF5B-RET cell): 0.0428 µM | IC50 (VEGFR2): 0.0265 µM | IC50 (RET): 0.0005 µM

Compound: CCCNc1cc(-c2ccc(N(C)[C@@H](C)c3ccc(-n4cc(F)cn4)nc3)nc2)c2c(C#N)cnn2c1 [Compound 60]
GI50 (Ba/F3-KIF5B-RET cell): 0.0116 µM | IC50 (VEGFR2): 0.0439 µM | IC50 (RET): 0.00098 µM

Compound: C[C@@H](c1ccc(-n2cc(F)cn2)nc1)N(C)c1ccc(-c2cc(OCC(C)(C)O)cn3ncc(C#N)c23)cn1 [Compound 61, (S)-4-(6-((1-(6-(4-fluoro-1H-pyrazol-1-yl)pyridin-3-yl)ethyl)(methyl)amino)pyridine-3-yl)-6-(2-hydroxy-2-methylpropoxy)pyrazolo[1,5-a]pyridine-3-carbonitrile]
GI50 (Ba/F3-KIF5B-RET cell): 0.00153 µM | IC50 (VEGFR2): 0.0255 µM | IC50 (RET): 0.00048 µM

Compound: CN(C(=O)c1ccc(N2CCCC2)nc1)c1ccc(-c2cc(OCC(C)(C)O)cn3ncc(C#N)c23)cn1 [Compound 64]
GI50 (Ba/F3-KIF5B-RET cell): 1.12 µM | IC50 (VEGFR2): 2.48 µM | IC50 (RET): > 0.5 µM

The remaining lines, values ahead:

GI50 (Ba/F3-KIF5B-RET cell): 0.0136 µM | IC50 (VEGFR2): 0.0805 µM | IC50 (RET): 0.00073 µM
Compound: C[C@@H](c1ccc(-n2cc(F)cn2)nc1)N(C)c1ccc(-c2cc(OCC3(O)CC3)cn3ncc(C#N)c23)cn1 [Compound 46, (S)-4-(6-((1-(6-(4-fluoro-1H-pyrazolyl)pyridin-3-yl)ethyl)(methyl)amino)pyridin-3-yl)-6-((1-hydroxycyclopropyl)methoxy)pyrazolo[1,5-a]pyridine-3-carbonitrile]

GI50 (Ba/F3-KIF5B-RET cell): 0.236 µM | IC50 (VEGFR2): > 5 µM | IC50 (RET): 0.00545 µM
Compound: C[C@@H](c1ccc(-n2cc(F)cn2)nc1)N(C)c1ccc(-c2cc(N3CCCCC3)cn3ncc(C#N)c23)cn1 [Compound 47, (S)-4-(6-((1-(6-(4-fluoro-1H-pyrazol-1-yl)pyridin-3-yl)ethyl)(methyl)amino)pyridine-3-yl)-6-(piperidin-1-yl)pyrazolo[1,5-a]pyridine-3-carbonitrile]

GI50 (Ba/F3-KIF5B-RET cell): 0.104 µM | IC50 (VEGFR2): 0.156 µM | IC50 (RET): 0.00167 µM
Compound: CC(C)Nc1cc(-c2ccc(N(C)[C@@H](C)c3ccc(-n4cc(F)cn4)nc3)nc2)c2c(C#N)cnn2c1 [Compound 50, (S)-4-(6-((1-(6-(4-fluoro-1H-pyrazol-1-yl)pyridin-3-yl)ethyl)(methyl)amino)pyridine-3-yl)-6-(isopropylamino)pyrazolo[1,5-a]pyridine-3-carbonitrile]

GI50 (Ba/F3-KIF5B-RET cell): 0.00502 µM | IC50 (VEGFR2): 0.00414 µM | IC50 (RET): 0.00047 µM
Compound: CCNc1cc(-c2ccc(N(C)[C@@H](C)c3ccc(-n4cc(F)cn4)nc3)nc2)c2c(C#N)cnn2c1 [Compound 51, (S)-4-(6-((1-(6-(4-fluoro-1H-pyrazol-1-yl)pyridin-3-yl)ethyl)(methyl)amino)pyridine-3-yl)-6-(ethylamino)pyrazolo[1,5-a]pyridine-3-carbonitrile]

GI50 (Ba/F3-KIF5B-RET cell): 0.0407 µM | IC50 (VEGFR2): 0.0592 µM | IC50 (RET): 0.0013 µM
Compound: CCN(Cc1ccc(-n2cc(F)cn2)nc1)c1ccc(-c2cc(OCC(C)(C)O)cn3ncc(C#N)c23)cn1 [Compound 57]

GI50 (Ba/F3-KIF5B-RET cell): 1.03 µM | IC50 (VEGFR2): 0.176 µM | IC50 (RET): 0.00185 µM
Compound: C[C@@H](c1ccc(N2CCCC2)nc1)N(C)c1ccc(-c2cc(OCC(C)(C)O)cn3ncc(C#N)c23)cn1 [Compound 62]
